The text below walks through data of PMC7210949, “Flexibility of intrinsically disordered degrons in AUX/IAA proteins reinforces auxin co-receptor assemblies” (Nature Communications, 2020).

Common to all, as to experiment: [3H]IAA saturation radioligand binding
The target in one test is T1, ASK1·TIR1·IAA7 (Arabidopsis thaliana, UniProt Q38825+Q570C0).
T1 construct: full-length IAA7 as GST fusion from E. coli, GST kept; with SKP1-like protein 1A
T1 sequence (Q570C0 1-594): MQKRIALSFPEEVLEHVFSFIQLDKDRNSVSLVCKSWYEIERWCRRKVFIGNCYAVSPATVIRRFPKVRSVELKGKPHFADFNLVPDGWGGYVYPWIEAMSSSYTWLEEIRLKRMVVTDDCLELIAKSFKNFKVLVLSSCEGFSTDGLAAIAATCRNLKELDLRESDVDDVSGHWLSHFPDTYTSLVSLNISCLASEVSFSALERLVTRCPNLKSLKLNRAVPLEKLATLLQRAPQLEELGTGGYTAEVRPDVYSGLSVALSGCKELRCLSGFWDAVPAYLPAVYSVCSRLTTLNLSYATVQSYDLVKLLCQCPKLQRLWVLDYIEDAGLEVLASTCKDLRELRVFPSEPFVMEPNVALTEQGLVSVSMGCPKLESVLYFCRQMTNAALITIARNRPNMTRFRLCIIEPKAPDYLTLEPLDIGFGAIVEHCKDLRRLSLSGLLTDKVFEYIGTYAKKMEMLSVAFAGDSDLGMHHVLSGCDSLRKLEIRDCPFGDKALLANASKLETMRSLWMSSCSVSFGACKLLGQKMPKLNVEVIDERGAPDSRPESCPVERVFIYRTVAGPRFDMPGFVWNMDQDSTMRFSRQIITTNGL
T1 sequence (Q38825 1-243): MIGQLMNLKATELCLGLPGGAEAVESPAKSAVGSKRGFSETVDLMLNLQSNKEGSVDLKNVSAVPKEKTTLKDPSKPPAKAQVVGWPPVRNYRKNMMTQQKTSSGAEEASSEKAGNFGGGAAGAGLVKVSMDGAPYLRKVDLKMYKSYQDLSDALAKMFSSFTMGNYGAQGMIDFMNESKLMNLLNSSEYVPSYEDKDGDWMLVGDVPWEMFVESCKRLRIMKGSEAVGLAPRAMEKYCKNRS
T1 sequence (Q39255 1-160 partner): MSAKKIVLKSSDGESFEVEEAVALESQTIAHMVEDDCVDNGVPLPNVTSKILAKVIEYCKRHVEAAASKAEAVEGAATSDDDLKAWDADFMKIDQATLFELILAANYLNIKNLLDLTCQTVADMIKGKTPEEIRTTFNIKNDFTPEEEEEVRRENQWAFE

A further test concerns the target T2, TIR1·IAA (7-7-7-7-12).
T2 construct: IAA7 with its PB1 domain replaced by that of IAA12 (one seamless polypeptide: DI, linker, core degron, degron tail from IAA7); GST fusion from E. coli; with SKP1-like protein 1A
More on the design: species or system Arabidopsis thaliana. Conditions: labelled compound; 0.01 µM ASK1·TIR1, 0.3 µM GST-AUX/IAA chimera, on ice 1 h; one-site fit; n = 2.

The next test has as its target T3, TIR1·IAA (12-12-12-12-7).
T3 construct: IAA12 with its PB1 domain replaced by that of IAA7 (one seamless polypeptide: DI, linker, core degron, degron tail from IAA12); GST fusion from E. coli; with SKP1-like protein 1A
Further details: species or system Arabidopsis thaliana. To be noted: labelled compound; 0.01 µM ASK1·TIR1, 0.3 µM GST-AUX/IAA chimera, on ice 1 h; one-site fit; n = 3.

A further test deals with T4, ASK1·TIR1·IAA12 (Arabidopsis thaliana, UniProt Q38830+Q570C0).
T4 construct: full-length IAA12 as GST fusion from E. coli, GST kept; with SKP1-like protein 1A
T4 sequence (Q570C0 1-594): T1 sequence (Q570C0 1-594)
T4 sequence (Q38830 1-239): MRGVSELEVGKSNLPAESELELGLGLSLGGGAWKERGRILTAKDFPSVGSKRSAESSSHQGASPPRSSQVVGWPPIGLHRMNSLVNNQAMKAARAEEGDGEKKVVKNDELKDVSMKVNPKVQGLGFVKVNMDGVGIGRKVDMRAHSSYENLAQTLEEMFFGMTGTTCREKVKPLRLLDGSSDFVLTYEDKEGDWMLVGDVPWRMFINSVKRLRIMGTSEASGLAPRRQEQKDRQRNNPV
T4 sequence (Q39255 1-160 partner): T1 sequence (Q39255 1-160 partner)

For a further test, the target named is T5, TIR1·IAA (7-7-7-12-7).
T5 construct: IAA7 with its degron tail replaced by that of IAA12 (one seamless polypeptide: DI, linker, core degron, PB1 from IAA7); GST fusion from E. coli; with SKP1-like protein 1A
Further details: species or system Arabidopsis thaliana. To be noted: labelled compound; 0.01 µM ASK1·TIR1, 0.3 µM GST-AUX/IAA chimera, on ice 1 h; one-site fit; n = 2.

Another test concerns the target T6, TIR1·IAA (12-12-12-7-12).
T6 construct: IAA12 with its degron tail replaced by that of IAA7 (one seamless polypeptide: DI, linker, core degron, PB1 from IAA12); GST fusion from E. coli; with SKP1-like protein 1A
Further details: species or system Arabidopsis thaliana. Conditions: labelled compound; 0.01 µM ASK1·TIR1, 0.3 µM GST-AUX/IAA chimera, on ice 1 h; one-site fit; n = 3.

By Kd is commonly meant the free concentration of one partner at which half of the binding sites on the other are occupied at equilibrium, for simple one-to-one binding. Low readings indicate tighter binding, high ones weaker binding. With `O=C(O)Cc1c[nH]c2ccccc12` [[3H]IAA], the Kd on ASK1·TIR1·IAA7 was roughly 0.02 µM; at TIR1·IAA (7-7-7-7-12), roughly 0.043 µM; at TIR1·IAA (12-12-12-12-7), roughly 0.133 µM; at ASK1·TIR1·IAA12, roughly 0.226 µM; at TIR1·IAA (7-7-7-12-7) it was roughly 0.057 µM; on TIR1·IAA (12-12-12-7-12), roughly 0.079 µM.
